# Reference: patent publication US12239650B2, “Compounds for treating and preventing net associated complications” (The Australian National University, priority 2019, dated 2025)
# How the values were obtained:
# [1] = system: histone-mediated RBC aggregation; experiment: Histone-mediated erythrocyte aggregation (flow cytometry, scanning EM); assay type: cell-based, human
# Procedure: Human erythrocytes (RBC) were incubated for 1 h at 37° C. alone (‘Saline’ control) or in the presence of histones (400 μg ml^−1) with or without mCBS (200 μg ml^−1). a, Percentage of RBC aggregation measured by flow cytometry based on forward (FSC) and side (SSC) scatter parameters and an appropriate gating strategy to discriminate aggregated from normal (non-aggregated) RBC. b, Scanning electron micrographs depicting level of RBC aggregation at low and high magnification following the three treatments depicted in (a). c, Concentration dependent inhibition of histone-mediated RBC aggregation by mCBS and MTS, in this case RBC aggregation being calculated by flow cytometry as fold increase in RBC auto-fluorescence relative to RBC in the absence of histones. The fold increase values also provide an estimate of the number of RBC in each aggregate. d, Retention of RBC in an artificial spleen that measures RBC deformability. RBC were incubated with increasing concentrations of histones for 1 h and, at the highest concentration used (400 μg ml^−1), also incubated with either mCBS or MTS (100 and 200 μg ml^−1), prior to passage through the artificial spleen. Data are mean±s.e.m. (n=3 biological replicates). ***P<0.001, ****P<0.0001 (one way ANOVA with Dunnett's multiple comparisons test).
# In vitro erythrocyte microscopy, aggregation, fragility and deformability assays. […] J Biol Chem 289, 19531-19537 (2014)). Similarly, erythrocyte fragility induced by histones, in the presence or absence of inhibitors, was quantified using a sheer stress assay that we developed recently (Kordbacheh, F., O'Meara, C. H., Coupland, L. A., Lelliott, P. M. & Parish, C. R. Extracellular histones induce erythrocyte fragility and anemia. Blood 130, 2884-2888 (2017)). Finally, the reduced deformability of erythrocytes in the presence of histones and the effect of inhibitors on this process was assessed by measuring the passage of erythrocytes through an artificial human spleen (Kordbacheh, F., O'Meara, C. H., Coupland, L. A., Lelliott, P. M. & Parish, C. R. Extracellular histones induce erythrocyte fragility and anemia. Blood 130, 2884-2888 (2017); and Deplaine, G. et al. The sensing of poorly deformable red blood cells by the human spleen can be mimicked in vitro. Blood 117, e88-95 (2011)).
# [2] = system: histone-mediated cytotoxicity for HMEC-1; experiment: Histone-mediated cytotoxicity assay (PI/Calcein-AM flow cytometry); assay type: cell-based
# Procedure: Histone-mediated cytotoxicity assays. To determine the cytotoxicity of calf thymus histones (Sigma-Aldrich), various concentrations of histones (100-800 μg ml^−1) were added to suspensions of HMEC-1 or HUVEC (1×10^6 ml^−1) in 96 well plates and incubated for 1 h at 37° C. Cells were then incubated for 5 min at 37° C. with propidium iodide (PI; 2.5 μg ml^−1) (ThermoFisher Scientific), to detect dead cells, and Calcein-AM (0.04 μM) (ThermoFisher Scientific), to detect viable cells, placed on ice and the percentage of dead and viable cells determined by flow cytometry using gating strategies. In inhibition assays, HMEC-1 were incubated with histones (400 μg ml^−1) for 1 h at 37° C. in the presence of different concentrations of compounds (12.5-400 μg ml^−1) prior to the addition of PI and Calcein-AM. HMEC-1 cytotoxicity at each compound concentration was then determined based on the formula:
# [formula] and the IC50 value for each polyanion then determined based on the line of best fit (nonlinear regression analysis) using Prism Software (Graphpad Software). In all assays MTS (IC50 30 μg ml^−1) was included as a standard to compensate for experimental variation, with data being adjusted in each assay to MTS having an IC50 of 30 μg ml^−1.
# [3] = Rat ischemia reperfusion tissue (skin) flap model; assay type: in vivo; conditions: rat skin flap IRI, 50 mg kg^−1 i.p., 72 h, FIG. 7d
# Source text: Rat ischemia reperfusion tissue flap model. The procedure employed is largely based on a previously described method (Bone, R. C. et al. Definitions for sepsis and organ failure and guidelines for the use of innovative therapies in sepsis. The ACCP/SCCM Consensus Conference Committee. American College of Chest Physicians/Society of Critical Care Medicine. Chest 101, 1644-1655 (1992)). Briefly, male Wistar rats were anaesthetized, locally depilated and a 3 cm by 6 cm fasciocutaneous flap was excised leaving the vascular pedicle intact. […] The clamp was removed 10 h post-application permitting returned blood flow to the flap. Test compounds (50 mg kg^−1) or saline were administered i.p. 5 min prior to clamp application and 5 min following its removal. The rats were monitored for a total experimental period of 72 h during which rats received additional compound or saline i.p. at 24 and 48 h post-op. The ‘Control No Clamp’ rats had the tissue flap excised and rubber placed underneath prior to re-suturing, however, the vessel was not clamped and they received saline at the same time points as the other rats. At the end of the experimental period the viability of the flaps was determined by the percentage of black necrotic or reddened areas versus pink viable areas. […]
compound,measurement,setting,value
"O=S(=O)(O)OC[C@H]1O[C@H](O[C@H]2[C@H](OS(=O)(=O)O)[C@@H](OS(=O)(=O)O)C(OS(=O)(=O)O)O[C@@H]2COS(=O)(=O)O)[C@H](OS(=O)(=O)O)[C@@H](OS(=O)(=O)O)[C@@H]1O[C@H]1O[C@H](COS(=O)(=O)O)[C@@H](OS(=O)(=O)O)[C@H](OS(=O)(=O)O)[C@H]1OS(=O)(=O)O (some centres unmarked) [MTS, maltotriose per-O-sulfate]",Effectiveness of MTS relative to mCBS in preventing RBC aggregation,[1]; FIG. 3c,~2 fold
same,Prevention of histone-mediated RBC aggregation (auto-fluorescence),"[1]; histones 400 μg ml^−1, FIG. 3c",prevented aggregation in a concentration dependent manner
same,Inhibition of histone-mediated cytotoxicity for HMEC-1 (endothelial cells),"[2]; compared with heparin, FIG. 2a",as effective as heparin
same,"IC50, inhibition of histone-mediated HMEC-1 cytotoxicity","[2]; histones 400 μg ml^−1, 1 h 37° C., MTS used as standard in all assays",30 µg/mL
same,Viable area of the skin flap,[3],highly variable
